Where two headings read alike, the source gives them in different places.
Key:
[1] = in vivo; cited from earlier work
[2] = target: T1, recombinant human glucocorticoid receptor (Homo sapiens, UniProt P04150); test: Cell-free glucocorticoid receptor binding assay (fluorescence polarization); details: for Ki: ± standard error, TA n = 2
T1 construct: purchased PanVera
T1 sequence (P04150 1-777): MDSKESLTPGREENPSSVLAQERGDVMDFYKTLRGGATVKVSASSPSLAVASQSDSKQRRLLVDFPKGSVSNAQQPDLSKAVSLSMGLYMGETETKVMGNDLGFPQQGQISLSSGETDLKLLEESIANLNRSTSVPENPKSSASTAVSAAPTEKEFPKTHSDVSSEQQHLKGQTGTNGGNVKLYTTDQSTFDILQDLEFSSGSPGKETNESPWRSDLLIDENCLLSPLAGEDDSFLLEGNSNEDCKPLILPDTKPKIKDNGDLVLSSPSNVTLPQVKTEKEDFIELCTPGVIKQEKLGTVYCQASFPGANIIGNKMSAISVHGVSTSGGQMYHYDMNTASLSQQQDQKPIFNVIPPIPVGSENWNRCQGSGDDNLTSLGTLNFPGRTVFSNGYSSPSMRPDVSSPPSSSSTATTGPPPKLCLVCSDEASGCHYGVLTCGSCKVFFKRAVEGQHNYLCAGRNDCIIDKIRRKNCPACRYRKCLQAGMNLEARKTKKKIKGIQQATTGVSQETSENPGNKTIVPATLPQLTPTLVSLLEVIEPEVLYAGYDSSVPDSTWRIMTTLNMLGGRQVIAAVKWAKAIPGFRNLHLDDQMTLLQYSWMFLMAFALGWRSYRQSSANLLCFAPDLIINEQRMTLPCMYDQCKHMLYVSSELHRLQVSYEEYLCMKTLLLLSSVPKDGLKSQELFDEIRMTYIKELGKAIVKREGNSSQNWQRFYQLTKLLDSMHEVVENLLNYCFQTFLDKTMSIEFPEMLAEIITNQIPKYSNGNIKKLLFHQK
Description: The assay is based on competitive inhibition binding of a fluorescently labeled high affinity ligand, and generates Ki values that can be compared between the test compounds. […] Thus, as with EC5o values, a higher Ki value reflects a weaker binding affinity.
A commercially available GR binding assay based on fluorescence polarization (FP) was utilized to compare the binding affinity of the PEGylated and native steroids (PanVera Glucocorticoid Receptor Competitor Assay). The assay is based on competitive inhibition and measures the ability of the test compound to compete with a fluorescently labeled ligand (Fluormone™ GS1) for binding to a purified preparation of the recombinant human glucocorticoid receptor.
In its free unbound form, the fluorescent ligand behaves as a small molecule with a high rotational velocity or “tumbling rate”, and correspondingly low ability to polarize fluorescence light (i.e. a low FP). When bound to receptor, the ligand essentially becomes part of a larger molecule, with a slower rotational velocity and a higher FP.
Standard competition assay procedures were employed. Briefly, serial dilutions of the test compound were incubated in triplicate wells of a black 96-well microplate together with the fluorescent ligand, and reactions were initiated by addition of purified recombinant receptor. Assays were incubated in the dark for 2-4 h, and then polarization values were read using the fluorescence polarization function of the Tecan Genios Pro microplate reader.

hGR = target: T2, hGR (Homo sapiens, UniProt P04150); test: Glucocorticoid receptor luciferase reporter assay in COS-7 cells; type: cell-based; details: for EC50: ± standard error, 20 hours incubation, TA n = 1
T2 construct: expressed in transfected cells; host or cells: COS-7 cells
T2 sequence (P04150 1-777): T1 sequence (P04150 1-777)
Description: To quantitate the effect of PEGylation on the ability of the steroid to enter a cell and elicit a response, a glucocorticoid receptor reporter assay was employed. In this assay, treatment of cells with ligand leads to receptor-mediated expression of the firefly luciferase gene. The level of gene expression is quantitated by an enzymatic luciferase assay, and the amount of light produced is directly proportional to the expression level of the luciferase gene.
For these experiments, the Promega Dual Luciferase Reporter kit was employed. This involves a firefly luciferase reporter gene under the control of the Glucocorticoid Response Element (GRE-Luc), co-transfected into COS-7 cells with a gene encoding the hGR and a control vector containing a Renilla luciferase reporter gene under no promoter or enhancer elements (pRL-Null). The firefly luciferase gene is expressed only upon binding of a ligand-bound receptor to the GRE-Luc enhancer. […]
Cos-cells were plated in 96-well microplates and transfected with the relevant plasmids using standard procedures; all incubations and assays were performed in triplicate in these plates using medium containing DCCS, as described in section 8.3.1. […] Cells were then lysed, and the expression levels of firefly and Renilla luciferase were determined by sequential enzymatic assays provided by the Promega Dual Luciferase Reporter Assay kit. The resulting luminescence was detected using the Tecan Genios Pro Microplate reader, and data were analyzed using GraphPad Prism 4.0 software.
Readings obtained in the absence of steroid represent “basal” background levels of luciferase expression. All readings in the presence of steroid are expressed as a ratio compared with this, and termed “fold increase over basal.” Values obtained for firefly luciferase were normalized to those obtained for Renilla luciferase in the corresponding well in order to compensate for differences in transfection efficiency or cell number.

[3] = target: T3, human glucocorticoid receptor (hGR) (Homo sapiens, UniProt P04150); test: Steroid-induced nuclear translocation assay of hGR in CHO cells; type: cell-based
T3 construct: expressed in transfected cells; host or cells: Chinese Hamster Ovary (CHO) cells
T3 sequence (P04150 1-777): T1 sequence (P04150 1-777)
Experimental: To determine whether PEGylated steroids can enter cells, and to compare their potency with the parent steroid triamcinolone, cells expressing the human glucocorticoid receptor (hGR) were incubated with increasing concentrations of TA, PEG-3-TA and PEG-7-TA, and the subcellular location of the hGR determined using immunocytochemistry and fluorescence microscopy.
Chinese Hamster Ovary (CHO) cells were plated on glass coverslips in 24-well plates, and transfected with DNA encoding the hGR using 0.25 μg DNA per well. One day following transfection, cells were incubated with increasing concentrations, from 1 nM to 10 μM, of TA, PEG-3-TA or PEG-7-TA, overnight at 37° C.
Stock solutions of steroids were prepared at 2 mM (TA) or 1 mM (PEG-3-TA, PEG-7-TA) in ethanol. Each test compound was diluted to 10 μM into culture medium supplemented with dextran-coated charcoal treated serum (DCCS) (final 5% serum), and then further diluted to the final concentrations. […] Dilutions of steroid were calculated to ensure that cells were not exposed to ethanol concentrations greater than 1% (v/v). […]
Following treatment with test compounds, cells were fixed in 3.7% (v/v) formaldehyde/PBS and permeabilized with 1% (v/v) Triton-X-100 in blocking buffer. Subcellular localization of the transfected hGR was determined by immunocytochemistry using an anti-GR antibody and a FITC-conjugated secondary antibody. […]

[4] = Oral bioavailability: plasma concentration after oral gavage; type: in vivo, Sprague Dawley rats; details: rats, PEGylated compounds normalized to 1 mg/kg dose
Experimental: Female Sprague Dawley® rats (150-200 g) were obtained from Harlan Labs. […] The animals were fasted overnight (day −1), but water was provided ad libitum.
On the morning of dosing (day 0), each rat was weighed and the cannulas flushed with heparin (1000 U/mL). With the aid of a feeding tube, the animals were then dosed orally (gavage) with aqueous formulations containing either the PEGylated or the free drug. The dose was determined on a mg/kg body weight basis. […] At specific time intervals (1, 2 and 4 hours), blood samples (approximately 1.0 mL) were removed through the cannula, placed in 1.5 mL centrifuge tubes containing 14 μL of heparin, mixed and centrifuged to separate the plasma. The plasma samples were frozen (<−70° C.) until assayed. The plasma samples were purified by a precipitation technique and the analyte extracted and assayed using a high performance liquid chromatography (LC) method with a mass selective detector (MSD). […] When appropriate, an internal standard was used in the analysis.

[5] = In-vitro metabolism, incubation with liver microsomes
Experimental: The procedure calls for the preparation of a NADPH regenerating system (NRS) solution. […] After the solids were all dissolved, the solution was stored in an ice bath.
Male Sprague Dawley rat microsomes (0.5 mL at 20 mg/mL concentration; M00001 from In-vitro Technologies, Baltimore, Md.) were removed from the freezer and thawed in an ice bath. Forty μL of the liver microsomes were diluted to 100 μL with 60 μL of deionized water in a test vial. To the test vial, tris buffer, pH 7.4 (640 μL) and a test article stock (10 μL) were added to have 750 μL volume.
Each test vial and the NRS solution were separately placed in a 37° C. water bath for 5 minutes. The NRS solution (250 μL) was added into each test vial. The reaction timer was started at the addition of the NRS to the first test vial. Each sample (200 μL) was collected and then perchloric acid (20 μL) was added to terminate the reaction. The samples were collected at the following time points: 0-2, 20, 40 and 60 minutes. All of the terminated test vials were stored in an ice bath.
Acetonitrile (100 μL) was added into each test vial, which was then centrifuged at 3000×g for 5 minutes. Supernatant (230 μL) was withdrawn and then 10 μL of the test solution was assayed by an LC/MS method. The concentration of test article in each sample was measured and recorded at each time point.

[6] = Solubility of tested compounds (Table 1)
Mu-opiate = Mu-opiate (Homo sapiens, UniProt P35372); details: read-out: IC50, Mu-opiate binding activity
μ-Opiate Receptors = μ-Opiate Receptors (Homo sapiens, UniProt P35372); test: biochemical; type: biochemical
Description: In the table above, for each compound, the bioactivity is provided as a measure of the relative bioactivity of each of the various PEG conjugates in comparison to parent drug. The EC50 is the concentration of agonist that provokes a response halfway between the baseline and maximum response in a standard dose-response curve.

Sequence of μ-Opiate Receptors (P35372 whole entry): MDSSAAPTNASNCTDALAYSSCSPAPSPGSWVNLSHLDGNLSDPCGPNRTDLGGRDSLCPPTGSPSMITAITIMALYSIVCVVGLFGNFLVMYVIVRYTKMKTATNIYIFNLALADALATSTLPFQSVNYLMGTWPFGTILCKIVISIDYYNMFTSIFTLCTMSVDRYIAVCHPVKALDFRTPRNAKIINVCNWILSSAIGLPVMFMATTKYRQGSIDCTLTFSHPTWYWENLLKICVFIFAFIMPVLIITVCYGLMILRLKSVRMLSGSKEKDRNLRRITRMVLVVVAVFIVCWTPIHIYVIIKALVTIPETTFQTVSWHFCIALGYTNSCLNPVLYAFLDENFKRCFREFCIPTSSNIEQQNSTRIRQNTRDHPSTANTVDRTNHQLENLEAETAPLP
Sequence of Mu-opiate (P35372 whole entry): as above

Nc1nc(F)nc2c1ncn2[C@@H]1O[C@H](CO)[C@@H](O)[C@@H]1O [fludarabine]
Oral bioavailability [1]: about 70%

C[C@]12C=CC(=O)C=C1CC[C@H]1[C@@H]3C[C@@H](O)[C@](O)(C(=O)CO)[C@@]3(C)C[C@H](O)[C@@]12F [TA, triamcinolone]
Ki [2]: 45.5 ± 21.1 nM | EC50 (hGR): 0.545 nM | Concentration for complete translocation of hGR to the nucleus [3]: ≥ 10 nM | hGR localization ([3]; 1 nM (lowest concentration), overnight): predominantly in the nucleus

C=CCN1CC[C@]23c4c5ccc(O)c4O[C@H]2C(OCCOCCOCCOC)CC[C@@]3(O)[C@H]1C5 (stereo partly drawn) [β-PEG3-Nal, β-6-CH3—(OCH2CH2)3—O-naloxol]
Mean Plasma Concentration ± SD, 1 hr ([4]; 1 hr): 53.79 ± 5.19 ng/mL | Mean Plasma Concentration ± SD, 2 hr ([4]; 2 hr): 22.47 ± 8.78 ng/mL | Substrate quality for cytochrome P450 isozymes in isolated rat liver microsomes [5]: poor substrate | Percentage of Active Remaining After Incubation with Liver Microsomes (0 min): 100.0% | Percentage of Active Remaining After Incubation with Liver Microsomes (20 min): 83.9% | Percentage of Active Remaining After Incubation with Liver Microsomes (40 min): 75.2% | Percentage of Active Remaining After Incubation with Liver Microsomes (60 min): 69.6% | Solubility [6]: soluble | IC50 (Mu-opiate): 31.7 nM | Bioactivity relative to the parent compound (μ-Opiate Receptors; from EC50 values): about 35% | EC50 (μ-Opiate Receptors; μ-opiate receptors, in-vitro): 31.7 nM

CC1(C)O[C@@H]2C[C@H]3[C@@H]4CCC5=CC(=O)C=C[C@]5(C)[C@@]4(F)[C@@H](O)C[C@]3(C)[C@]2(C(=O)CO)O1 [TAA, triamcinolone acetonide]
Fold difference vs TAA (Ki, Binding assay) [2]: 1 | Ki [2]: 2.2 ± 0.5 nM | Fold difference vs TAA (EC50, Luciferase assay) (hGR): 1 | EC50 (hGR): 0.062 ± 0.011 nM
